# Test results reported in patent EP0714912B1, “GMP-140 ligand” (THE BOARD OF REGENTS OF THE UNIVERSITY OF OKLAHOMA, priority 1990, dated 1992).
# What was measured:
# [1] = test system: immobilized GMP-140; assay: Neutrophil adhesion to purified GMP-140 immobilized on plastic wells (myeloperoxidase read-out); assay type: cell-based, human; details: for inhibition of binding of neutrophils to immobilized GMP-140, dependence on concentration: 0.1 mM to 1.5 mM peptide, Figure 2; for inhibition of neutrophil adhesion to immobilized GMP-140 by peptides: peptide screen, result in words
# Source text: (§1) Peptides were screened for their ability to inhibit neutrophil adhesion to purified GMP-140 immobilized on plastic wells, using the assay described by Geng, et al., Nature 343, 757-760 (1990).
# (§2) Human neutrophils are isolated from heparinized whole blood by density gradient centrifugation on Mono-Poly resolving media, Flow Laboratories. Neutrophil suspensions are greater than 98% pure and greater than 95% viable by trypan blue exclusion. For adhesion assays, neutrophils are suspended at a concentration of 2 x 10^6 cells/ml in Hanks' balanced salt solution containing 1.26 mM Ca^2+ and 0.81 mM Mg^2+ (HBSS, Gibco) with 5 mg/ml human serum albumin (HBSS/HSA). Adhesion assays are conducted in triplicate in 96-well microtiter plates, Corning, incubated at 4°C overnight with 50 microliters of various protein solutions.
# GMP-140 is plated at 5 micrograms/ml and the control proteins: human serum albumin (Alb), platelet glycoprotein IIb/IIIa (IIb), von Willebrand factor (vWF), fibrinogen (FIB), thrombomodulin (TM), gelatin (GEL) or human serum (HS), are added at 50 micrograms/ml. All wells are blocked for 2 h at 22°C with 300 microliters HBSS containing 10 mg/ml HSA, then washed three times with HBSS containing 0.1% Tween-20 and once with HBSS. Cells (2 x 10^5 per well were added to the wells and incubated at 22°C for 20 min. The wells were then filled with HBSS/HSA, sealed with acetate tape (Dynatech), and centrifuged inverted at 150 g for 5 min. After discarding nonadherent cells and supernates, the contents of each well are solubilized with 200 microliters 0.5% hexadecyltrimethylammonium bromide, Sigma, in 50 mM potassium phosphate, pH 6.0, and assayed for myeloperoxidase activity, Ley, et al., Blood 73, 1324-1330 (1989). The number of cells bound was derived from a standard curve of myeloperoxidase activity versus numbers of cells. Under all assay conditions, the cells released less than 5% of total myeloperoxidase and lactate dehydrogenase. Results are presented in Table I. 100% adhesion is that seen in the presence of the C-terminal peptide (amino acid residues 761-777 of GMP-140) as a negative control; this value is the same as controls in which neither peptide nor antibody is added to the cells. Inhibition is read as a lower percent adhesion, so that a value of 5% means that 95% of the specific adhesion was inhibited.
# Peptides from the lectin-like domain of GMP-140 were assayed for their ability to inhibit adhesion of neutrophils to immobilized GMP-140 in the assay described in example 1. Concentrations tested ranged from 0.1 mM to 1.5 mM.
# [2] = test system: immobilized GMP-140; assay: ELISA (avidin detection) of binding of biotinylated monoclonal antibodies G1, G2, G3 to immobilized GMP-140 in presence of soluble peptide; parameters: species or system human; details: for % Binding of Biotinylated MAbs G1: peptide 1.5 mM added to biotinylated mAb G1 (2.5 micrograms/ml) before addition to immobilized GMP-140; for % Binding of Biotinylated MAbs G2: peptide 1.5 mM added to biotinylated mAb G2 (2.5 micrograms/ml) before addition to immobilized GMP-140; for % Binding of Biotinylated MAbs G3: peptide 1.5 mM added to biotinylated mAb G3 (2.5 micrograms/ml) before addition to immobilized GMP-140
# Protocol: Based on competitive ELISAs with the purified protein, G1, G2, and G3 each recognize distinct or only partially overlapping epitopes. 1.5 mM peptide was added to biotinylated mAb at a concentration of 2.5 micrograms/ml, which were then added to the wells containing GMP-140, as described in example 1. Binding was measured by an ELISA with an avidin detection system.
# The monoclonal antibodies were biotinylated as follows: to 0.5 ml of purified IgG antibody (1 mg/ml in PBS, pH 7.4) was added 50 µl of 3.2 mM N-hydroxysuccinimide biotin in dimethyl sulfoxide and 50 µl of 1 M NaHCO3. After a 2 hour incubation at room temperature in the dark, the reaction was stopped with 50 µl of 1 M NH4Cl. The biotinylated antibody was then separated from other components by gel filtration on a PD-10 column equilibrated in PBS. The ELISA was performed as follows; all steps were performed at room temperature.
# Biotinylated antibody (2.5 µg/ml) with or without 1.5 mM peptide was incubated with wells coated with GMP-140 as described in example 1. After a 2 hour incubation, the antibody was removed, the wells were washed, and 0.1 ml of horseradish peroxidase-conjugated stepavidin (Pierce), diluted 1:1,000 in HBSS/HSA, was added for 30 min. The wells were then washed and 0.1 ml of peroxidase substrate (Pierce) was added for 15 min. The color reaction was read at 405 nm.
# [3] = test system: neutrophils; assay: Adhesion of neutrophils to microtiter wells coated with lectin peptide 19-34-KLH conjugate or GMP-140; assay type: cell-based, human; details: peptide 1.5 mM; Figure 3
# Protocol: (§3) GMP-140 is plated at 5 micrograms/ml and the control proteins: human serum albumin (Alb), platelet glycoprotein IIb/IIIa (IIb), von Willebrand factor (vWF), fibrinogen (FIB), thrombomodulin (TM), gelatin (GEL) or human serum (HS), are added at 50 micrograms/ml. All wells are blocked for 2 h at 22°C with 300 microliters HBSS containing 10 mg/ml HSA, then washed three times with HBSS containing 0.1% Tween-20 and once with HBSS. […] Inhibition is read as a lower percent adhesion, so that a value of 5% means that 95% of the specific adhesion was inhibited.
# Lectin peptide 19-34 was conjugated to the carrier protein keyhole limpet hemocyanin by its N-terminal cysteine by standard procedures such as the commercial Imject kit from Pierce Chemicals. This peptide-KLH conjugate was then tested in the assay described in example 1 and the numbers of cells bound determined. […]
# [4] = molecular target: T1, immobilized GMP-140 (Homo sapiens, UniProt P16109); assay: Neutrophil adhesion to purified GMP-140 immobilized on plastic wells (myeloperoxidase read-out); assay type: cell-based; details: concentrations up to 300 µM
# T1 construct: from tissue; host or cells: outdated human platelet packs
# T1 sequence (P16109 42-830): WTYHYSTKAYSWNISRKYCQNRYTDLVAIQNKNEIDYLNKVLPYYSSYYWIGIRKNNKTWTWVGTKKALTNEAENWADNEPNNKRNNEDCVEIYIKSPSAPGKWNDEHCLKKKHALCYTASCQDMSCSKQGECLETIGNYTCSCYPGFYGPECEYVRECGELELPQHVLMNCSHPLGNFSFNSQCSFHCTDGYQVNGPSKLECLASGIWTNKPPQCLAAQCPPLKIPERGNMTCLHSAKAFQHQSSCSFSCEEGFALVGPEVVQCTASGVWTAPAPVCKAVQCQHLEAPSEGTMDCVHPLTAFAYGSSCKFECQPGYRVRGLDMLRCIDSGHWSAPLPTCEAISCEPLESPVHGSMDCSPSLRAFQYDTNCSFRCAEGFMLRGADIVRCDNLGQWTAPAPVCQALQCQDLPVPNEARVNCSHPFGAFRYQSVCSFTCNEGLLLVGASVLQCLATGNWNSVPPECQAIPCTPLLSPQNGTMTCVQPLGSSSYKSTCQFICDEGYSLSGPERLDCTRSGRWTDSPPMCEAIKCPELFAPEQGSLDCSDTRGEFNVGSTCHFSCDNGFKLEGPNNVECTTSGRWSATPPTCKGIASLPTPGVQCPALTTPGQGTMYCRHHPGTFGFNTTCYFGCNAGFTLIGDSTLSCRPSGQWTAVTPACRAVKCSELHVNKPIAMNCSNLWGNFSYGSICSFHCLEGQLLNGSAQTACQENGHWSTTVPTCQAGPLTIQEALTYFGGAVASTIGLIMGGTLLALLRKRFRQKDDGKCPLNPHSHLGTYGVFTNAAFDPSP
# Source text: as §1, §2
# as §3, with “inhibited. […]” for “inhibited.”
# [5] = test system: neutrophils; assay: Specific binding of [125I]GMP-140 to neutrophils (enzyme-treated cells or with competitors); parameters: species or system human; details: 6.5 µM of conjugate, 65 µM of oligosaccharide; coupled to bovine serum albumin at about 10:1
Compound,"inhibition of binding of neutrophils to immobilized GMP-140, dependence on concentration [1]",% Binding of Biotinylated MAbs G1 [2] [%],% Binding of Biotinylated MAbs G2 [2] [%],% Binding of Biotinylated MAbs G3 [2] [%],inhibition of neutrophil adhesion to immobilized GMP-140 by peptides [1],further results
"amino acids 73-83: peptide from the GMP-140 lectin domain, amino acids 73-83 (AENWADNEPNN; UniProt P16109 114-124, looked up, fragment)",inhibited binding in a dose-dependent manner,,,,,
"LECTIN 54-72: synthetic peptide, amino acids 54-72 of the lectin domain of GMP-140 (RKNNKTWTWVGTKKALTNE; UniProt P16109 95-113, looked up, fragment)",,106,125,104,inhibited adhesion,
"LECTIN 19-34: synthetic peptide, amino acids 19-34 of the lectin domain of GMP-140 (CQNRYTDLVAIQNKNE; UniProt P16109 60-75, looked up, fragment)",,23,26,24,inhibited adhesion,competition by fluid-phase competitor for neutrophil adhesion to immobilized lectin peptide 19-34-KLH conjugate [3]: compete for adhesion
CC(=O)N[C@H]1[C@H](O[C@H]2[C@@H](O)[C@@H](CO)O[C@@H](O[C@H]3[C@H](O)[C@@H](O)C(O)O[C@@H]3CO)[C@@H]2O)O[C@H](CO)[C@@H](O[C@@H]2O[C@H](CO)[C@H](O)[C@H](O)[C@H]2O)[C@@H]1O[C@@H]1O[C@@H](C)[C@@H](O)[C@@H](O)[C@@H]1O (stereo partly drawn) [LNFIII],,,,,,"effect on binding of neutrophils to purified, immobilized GMP-140 [4]: absolutely no effect"
sialyl Le^x,,,,,,inhibition of GMP-140 binding by multivalent neoglycoconjugates [5]: failed to inhibit binding
"amino acids 66-78: overlapping peptide of amino acids 66-78 of the GMP-140 lectin domain (KKALTNEAENWAD; UniProt P16109 107-119, looked up, fragment)",inhibited binding in a dose-dependent manner,,,,inhibited adhesion,inhibition of neutrophil adhesion to immobilized GMP-140 by peptides ([1]; listed as amino acids 66 to 78): very active
"amino acids 23-30: peptide from the GMP-140 lectin domain, amino acids 23-30 (YTDLVAIQ; UniProt P16109 64-71, looked up, fragment)",inhibited binding in a dose-dependent manner,,,,,
"amino acids 54-63: peptide from the GMP-140 lectin domain, amino acids 54-63 (RKNNKTWTWV; UniProt P16109 95-104, looked up, fragment)",inhibited binding in a dose-dependent manner,,,,,
"LECTIN 73-89: synthetic peptide, amino acids 73-89 of the lectin domain of GMP-140 (AENWADNEPNNKRNNED; UniProt P16109 114-130, looked up, fragment)",,95,99,94,inhibited adhesion,
